According to paper PMC12113730 (Microorganisms, 2025):
Like-named read-outs stand apart in the source and are kept apart here. Ends that are not written are not given here.

Key:
in vitro = conditions: both, human, 10-fold diluted pooled whole saliva supernatant (WSS)
Protocol: (§4) After an informed consent was obtained from all participants, stimulated whole saliva (WS) samples were collected from healthy, non-smoking adult male and female volunteers ranging from 25 to 39 years old. WS was obtained for three volunteers with good general oral health who were not taking medications that could alter their salivary flow and was performed as described previously in [29, 39]. Salivary secretion was stimulated by chewing a piece of Parafilm wax. WS was collected between 9 and 11 am, at least 2 h after the last meal. The salivary secretion was collected using a collecting tube that was kept on ice until obtaining 5.0 mL. The total volume of collected saliva was centrifuged at 4500× g (Sorvall™ ST 16 Centrifuge—Thermo Fisher Scientific, Waltham, MA, USA) at 4 °C for a period of 30 min to separate bacteria, cells and residues. The total whole saliva pellet and the total whole saliva supernatant (WSS) were separated, and the WSS was pooled and used for the degradation assay.
(§5) To assess and compare proteolysis degradation in the WS environment, all the peptides were added to WSS to observe their degradation over time by cationic-PAGE and HPLC. To investigate the degradation of each peptide, 50 µg mL^−1 of synthetic peptides 0WHst5, WP113, 8WH5, 7WH5 and 6WH5 were added to 10-fold diluted WSS. After 0, 0.5, 1.5, 4, 6, 8, 24 and 48 h of incubation, two aliquots of 100 µL were removed (one for the cationic-PAGE analysis another for HPLC analysis). After that, the aliquots were boiled for 5 min to terminate proteolytic activity. Subsequently the aliquots were diluted in a buffer containing 80% acetonitrile/19.9% H2O/0.1% trifluoroacetic acid, dried using a Vacufuge concentrator (Eppendorf, Westbury, NY, USA) and desalted using ZipTip® Pipette Tips (Merk, Rahway, NJ, USA) to concentrate and purify the samples [29].
(§6) For the cationic-PAGE, the aliquots were dried using a Vacufuge concentrator and resuspended in sample buffer containing 0.04% methyl green (Thermo Fisher Scientific, Waltham, MA, USA) in 40% sucrose. Then, 5 μg of each peptide was used as standard for the test. The stacking and separation gels were polymerized using 100 W incandescent light for 9 min each and the electrophoresis was carried out at a constant voltage of 120 V. The gels were stained with 0.1% Coomassie brilliant blue (w/v), 8% methanol (v/v) and 7% acetic acid (v/v) overnight with agitation. Destaining was carried out with 40% methanol, 10% acetic acid and 50% water (v/v). The extent of degradation was quantified by Image Lab using the relative quantity tool.

[1] = cationic-PAGE; for Peptide remaining (band quantification): 0 h, 50 µg mL^-1 peptide in 10-fold diluted pooled human WSS, Coomassie, Image Lab relative quantity, mean ± SD, duplicate samples; for Band of the peptide in the gel at 8 h (in words) / Time at which the band was no longer observed in the gel (total/complete degradation): 50 µg mL^-1 peptide in 10-fold diluted human WSS
Protocol: as §4, §5, §6

[2] = for HPLC peak of intact peptide after 8 h (in words): 50 µg mL^-1 peptide in 10-fold diluted human WSS, RP-HPLC C18, UV 280 nm; for Time after which the peptide was still found in the samples in whole saliva: abstract, cationic-PAGE and HPLC assays
Protocol: as §4
To assess and compare proteolysis degradation in the WS environment, all the peptides were added to WSS to observe their degradation over time by cationic-PAGE and HPLC. […] After 0, 0.5, 1.5, 4, 6, 8, 24 and 48 h of incubation, two aliquots of 100 µL were removed (one for the cationic-PAGE analysis another for HPLC analysis). After that, the aliquots were boiled for 5 min to terminate proteolytic activity. Subsequently the aliquots were diluted in a buffer containing 80% acetonitrile/19.9% H2O/0.1% trifluoroacetic acid, dried using a Vacufuge concentrator (Eppendorf, Westbury, NY, USA) and desalted using ZipTip® Pipette Tips (Merk, Rahway, NJ, USA) to concentrate and purify the samples [29].
The aliquots collected for the HPLC analysis were also dried, desalted and resuspended in 30 μL of 10 mM Tris·HCl pH 7.2 buffer solution. Then, 30 µL was analyzed by HPLC in analytical mode using a Waters Symmetry® C18 5 µm, 4.6 × 250 mm reverse phase column (Part No. WAT054275) (Waters, Milford, MA, USA). The solvents used were all chromatographic grade (purchase from Sigma-Aldrich®, St. Louis, MO, USA) and the water used was ultrapure. The chromatographic conditions were solvents A (0.045% TFA/H2O) and B (0.036% TFA/ACN), in a gradient of 5% to 95% B in 30 min, with a flow of 0.53 mL min^−1 at a detector wavelength of 280 nm, using a Waters Alliance 2695 HPLC connected to a Waters 2996 photodiode array detector (Waters, Milford, MA, USA).

C. albicans ATCC 18804 = conditions: ATCC 18804, 48 h
Protocol: (§1) For the antifungal tests, the strains C. albicans ATCC 90028, C. albicans ATCC 18804 and C. albicans ATCC 10231 were donated by the National Institute of Quality Control in Health (INCQS—Fundação Oswaldo Cruz—Fiocruz, Rio de Janeiro, Brazil). To prepare C. albicans for the tests, the lyophilized microorganism was initially reactivated in Sabouraud Dextrose Broth (Kasvi, Pinhais, Brazil) and incubated at 37 °C for 24 h. Then, the yeasts were seeded in Sabouraud Dextrose Agar and incubated for 48 h at 37 °C. Finally, the stock culture obtained was stored in a refrigerator at 4 °C for 3 months.
(§2) To prepare the standardized suspensions, some colonies of C. albicans stock cultures were seeded in Sabouraud Dextrose Broth and incubated for 24 h at 37 °C. After this time, a small aliquot of the inoculum was transferred to sterile Sabouraud Dextrose Broth to obtain a suspension with optical density (OD) between 0.10 and 0.15 (530 nm), with approximate concentration of 1 × 10^6 CFU mL^−1 [34, 35]. Finally, the suspension was diluted to obtain a concentration of 1 × 10^3 CFU mL^−1, which was used in the tests described below.
(§3) The antifungal activity tests were performed using broth microdilution. The broth microdilution was performed as described in the M27-A3 document of Clinical and Laboratory Standards Institute (CLSI) with modifications. The medium used was Sabouraud Dextrose Broth (SDB). The synthetic peptides were dissolved in a Tris·HCl 10 mM pH 7.2 buffer and added to the plate containing SDB for a final concentration in the first well of 160 µmol L^−1. The cell suspension was prepared as described under “Microorganisms and growth conditions”. This suspension was inoculated on a microdilution plate previously prepared with the peptides diluted in a concentration range from 160 to 0.31 µmol L^−1. The control drug used was fluconazole (FLU), diluted in deionized water. The plates were incubated at 37 °C for 48 h and at the end of the incubation time, the OD in each well was read in a spectrophotometer at 595 nm. The test was performed in triplicate for each of the strains.

[3] = tested on: C. albicans ATCC 10231 (fluconazole-resistant); conditions: fluconazole-resistant strain, Sabouraud Dextrose Broth, 37 °C, 48 h, OD 595 nm, triplicate
Protocol: as §1, §2, §3

C. albicans ATCC 90028 = conditions: ATCC 90028, 48 h, 20 µmol L^-1
Protocol: as §1, §2, §3

C. albicans = conditions: some species of C. albicans; cited from earlier work
Excerpt: High levels of Hst5 were found in the saliva of patients with periodontal and oral fungal infections.

Compound | remaining at 0.5 h, 50 µg mL^-1 (in vitro) | remaining at 4 h, 50 µg mL^-1 (in vitro) | remaining at 6 h, 50 µg mL^-1 (in vitro) | remaining at 8 h, 50 µg mL^-1 (in vitro) | remaining at 24 h, 50 µg mL^-1 (in vitro) | remaining at 48 h, 50 µg mL^-1 (in vitro) | Peptide remaining (band quantification) [1] | Band of the peptide in the gel at 8 h (in words) [1] | HPLC peak of intact peptide after 8 h (in words) [2] | Time after which the peptide was still found in the samples in whole saliva [2] | Inhibition of C. albicans ATCC 18804 (C. albicans ATCC 18804; 40 µmol L^-1) | Inhibition of growth of C. albicans ATCC 10231 ([3]; peptide 40 µmol L^-1) | Inhibition of C. albicans ATCC 18804 (C. albicans ATCC 18804; 80 µmol L^-1) | Inhibition of C. albicans ATCC 10231 ([3]; peptide 160 µmol L^-1) | Time at which the band was no longer observed in the gel (total/complete degradation) [1] | Inhibition of C. albicans ATCC 90028 (C. albicans ATCC 90028) | Inhibition of C. albicans ATCC 18804 (C. albicans ATCC 18804; 20 µmol L^-1) | Inhibition of C. albicans ATCC 18804 (C. albicans ATCC 18804; 160 µmol L^-1) | Minimum inhibitory concentration (MIC) (C. albicans)
WKRHHGYKR [Peptide 8WH5] | 99.9 ± 8% | 80.3 ± 13% | 62 ± 8.4% | 44.2 ± 0.9% | 8.6 ± 4.4% | 3.5 ± 0.8% | 100.0 ± 0.0% | possible to visualize the band | still detectable | ≥ 8 h | greater than 80% | 85% |  |  |  |  |  |  | 
WKRHHGYK [Peptide 7WH5] | 100 ± 4.5% | 86.2 ± 3.1% | 55.9 ± 5.8% | 49.6 ± 2.4% | 19.1 ± 7.5% | 6.9 ± 1% | 100.0 ± 0.0% | possible to visualize the band | still detectable | ≥ 8 h |  |  | greater than 80% | 90.9% |  |  |  |  | 
C[C@H](NC(=O)[C@H](Cc1c[nH]cn1)NC(=O)[C@H](CO)NC(=O)[C@H](CC(=O)O)NC(=O)[C@@H](N)Cc1c[nH]c2ccccc12)C(=O)N[C@@H](CCCCN)C(=O)N[C@@H](CCCNC(=N)N)C(=O)N[C@@H](Cc1c[nH]cn1)C(=O)N[C@@H](Cc1c[nH]cn1)C(=O)NCC(=O)N[C@@H](Cc1ccc(O)cc1)C(=O)N[C@@H](CCCCN)C(=O)N[C@@H](CCCNC(=N)N)C(=O)N[C@@H](CCCCN)C(=O)N[C@@H](Cc1ccccc1)C(=O)N[C@@H](Cc1c[nH]cn1)C(=O)N[C@@H](CCC(=O)O)C(=O)N[C@@H](CCCCN)C(=O)N[C@@H](Cc1c[nH]cn1)C(=O)N[C@@H](Cc1c[nH]cn1)C(=O)N[C@@H](CO)C(=O)N[C@@H](Cc1c[nH]cn1)C(=O)N[C@@H](CCCNC(=N)N)C(=O)NCC(=O)N[C@@H](Cc1ccc(O)cc1)C(=O)O [Peptide 0WHst5] | 91 ± 17% |  |  |  |  |  |  |  |  |  |  |  |  |  | ≤ 4 h | 75% | greater than 80% |  | 
WKRHHGY [Peptide 6WH5] | 98.8 ± 1.1% | 79.3 ± 9.8% | 52.4 ± 7% | 30.6 ± 4% | 16.5 ± 5.9% | 8.3 ± 6.2% | 100.0 ± 0.0% | possible to visualize the band | still detectable | ≥ 8 h |  |  | above 70% |  |  |  |  | greater than 80% | 
WAKRHHGYKRKFH [WP113] | 89.5 ± 7.3% | 7.23 ± 8.17% |  |  |  |  | 100.0 ± 0.0% |  | disappeared |  |  |  |  |  | > 4 h | 76% |  |  | 
Histatin 5 [Hst5] |  |  |  |  |  |  |  |  |  |  |  |  |  |  |  |  |  |  | 8 to 16 µg/mL
